Reference: PubChem BioAssay (NCI)
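Test compounds were applied to cells in 96-well plates for 48 hours at 5 doses. TGI denotes the concentration required for complete inhibition of growth.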

Assays:
Experiment in all cases: NCI-60 cell line screen, 48 h
[1] = tested on: 786-0 renal
[2] = tested on: A498 renal
[3] = tested on: A549 NSCLC
[4] = tested on: ACHN renal
[5] = tested on: CAKI-1 renal
[6] = tested on: CCRF-CEM leukemia
[7] = tested on: COLO 205 colon
[8] = tested on: DLD-1 colon
[9] = tested on: DMS 114 small cell lung
[10] = tested on: DMS 273 small cell lung
[11] = tested on: EKVX NSCLC
[12] = tested on: HCC-2998 colon
[13] = tested on: HCT-116 colon
[14] = tested on: HCT-15 colon
[15] = tested on: HL-60(TB) leukemia
[16] = tested on: HOP-62 NSCLC
[17] = tested on: HT29 colon
[18] = tested on: IGROV1 ovarian
[19] = tested on: K-562 leukemia
[20] = tested on: KM12 colon
[21] = tested on: KM20L2 colon
[22] = tested on: LOX IMVI melanoma
[23] = tested on: LXFL 529 NSCLC
[24] = tested on: M14 melanoma
[25] = tested on: M19-MEL melanoma
[26] = tested on: MALME-3M melanoma
[27] = tested on: MOLT-4 leukemia
[28] = tested on: NCI-H226 lung
[29] = tested on: NCI-H23 lung
[30] = tested on: NCI-H460 lung
[31] = tested on: NCI-H522 lung
[32] = tested on: OVCAR-3 ovarian
[33] = tested on: OVCAR-5 ovarian
[34] = tested on: OVCAR-8 ovarian
[35] = tested on: RPMI-8226 leukemia
[36] = tested on: RXF 393 renal
[37] = tested on: SF-268 CNS
[38] = tested on: SF-295 CNS
[39] = tested on: SF-539 CNS
[40] = tested on: SK-MEL-2 melanoma
[41] = tested on: SK-MEL-28 melanoma
[42] = tested on: SK-MEL-5 melanoma
[43] = tested on: SK-OV-3 ovarian
[44] = tested on: SN12C renal
[45] = tested on: SNB-19 CNS
[46] = tested on: SNB-75 CNS
[47] = tested on: SNB-78 CNS
[48] = tested on: SW-620 colon
[49] = tested on: TK-10 renal
[50] = tested on: U251 CNS
[51] = tested on: UACC-257 melanoma
[52] = tested on: UACC-62 melanoma
[53] = tested on: UO-31 renal
[54] = tested on: XF 498 CNS

Measured: TGI

CCOC(=O)Nn1c(C)cc(C(=O)OC)c1C
> 100 µM: all assays above
